Patent US12076300B2, “Dosage regime with esketamine for treating major depressive disorder” (priority 2019, dated 2024)

Key:
[1] = tested on: human peripheral blood lymphocytes (HPBL)
Method: The clastogenic potential of (S)-norketamine was evaluated in the in vitro mammalian chromosome aberration test using human peripheral blood lymphocytes (HPBL) in both the absence and presence of an induced metabolic activation system (the 9000 g supernatant [S9] microsomal fraction of liver homogenate from rats exposed to phenobarbital/5,6-benzoflavone).
The study was conducted in 2 phases, with a preliminary toxicity test used to determine the appropriate concentrations for the definitive chromosomal aberration assay. Water was used as a negative (vehicle) control. In both phases, the cells were treated for 3 and 21 hours in the absence of S9 mix and for 3 hours in the presence of S9 mix. The mitotic index was assessed for all cultures to determine cytotoxicity. Ten concentrations, ranging from 2.62 to 260.16 μg/mL, were evaluated in the preliminary toxicity test.

[2] = Single dose, randomized, open-label, crossover study in healthy volunteers: pharmacokinetics; settings: plasma analyte after single dose esketamine hydrochloride 20 mg oral solution; 15 subjects
From the text: A randomized, open-label 4-way crossover study in 16 healthy male and female subjects was held wherein said subjects were placed in a randomly assigned order and administered esketamine. Each subject was assigned to 1 of 4 treatment sequences according to a randomization code such that 4 subjects were assigned to each treatment sequence. There was a wash-out period of at least 7 days between dosing periods with doses consisting of either oral or intravenous esketamine hydrochloride. The study consisted of an eligibility screening period of 28 days, 4 study periods involving administration of a single dose of esketamine hydrochloride followed by safety assessments with blood sampling for PK purposes up to 72 hours after study drug administration, discharge at 72 hours after study drug administration and a follow-up visit 7-14 days after the last PK blood sample was taken on Day 4.

[3] = tested on: human peripheral blood lymphocytes (HPBL); remark: listed apart in the source
Method: The clastogenic potential of esketamine was evaluated in the in vitro mammalian chromosome aberration test using human peripheral blood lymphocytes (HPBL) in both the absence and presence of an induced metabolic activation system (the 9000 g supernatant [S9] microsomal fraction of liver homogenate from rats exposed to Aroclor-1254).
The study was conducted in 2 phases, with a preliminary toxicity test used to determine the appropriate concentrations for the definitive chromosomal aberration assay. Water was used as a negative (vehicle) control. Toxicity (defined as ≥45% reduction in MI relative to the vehicle control) was evaluated at 9 concentrations, ranging from 0.0238 to 238 μg/ml, after exposure of HPBL to esketamine for 20 hours in the absence of S9 activation, or for 4 hours, either in the presence or absence of S9 activation, followed by a 16-hour recovery period.
The definitive chromosome aberration assay evaluated HPBL cells after exposure to esketamine for 20 hours in the absence of S9 activation, or for 4 hours, either in the presence of absence of S9 activation, followed by a 16-hour recovery. Positive controls for chromosomal aberrations in non-activated and S9-activated evaluations, respectively, consisted of mitomycin C (MMC, 0.6 and 0.3 μg/mL for the 4- and 20-hour exposures, respectively) and cyclophosphamide (CP, 2.5, 5, and 7.5 μg/mL). […] Initially, the doses selected for evaluation of chromosomal aberrations were 60, 120, and 238 μg/mL for the non-activated 4- and 20-hour treatment conditions; and 30, 60, and 200 μg/mL for the S9-activated 4-hour treatment condition.

[4] = tested on: healthy male and female subjects; assay: Single dose crossover study in healthy volunteers: treatment-emergent adverse events; format: in vivo, human; settings: all treatments, 16 subjects
From the text: A total of 128 TEAEs (treatment-emergent adverse event) were reported by 15 of 16 (94%) subjects of which 79 TEAEs reported by 14 of 16 (88%) subjects were to be related to the study drug. Overall, a total of 14 of 128 TEAEs reported by 4 (25%) subjects were of moderate severity and 114 of 128 TEAEs reported by 15 (94%) subjects were of mild severity. […] The most frequently occurring adverse events (reported more than twice) were headache, dizziness, hypokinesia, feeling abnormal, fatigue, euphoric mood inappropriate affect, nausea and hyperhidrosis. Table 4 presents the frequency of the most frequently reported related TEAEs as a percentage of the subjects that experienced an adverse effect per treatment.

[5] = Domino (2010); cited from earlier work
[6] = tested on: male Sprague Dawley rats; assay: 7-day forced swim test; format: in vivo
Method: Groups of, 6-7 week old, male Sprague Dawley rats were administered esketamine by intraperitoneal injection and their behavioral despair assessed by a forced swim test. The animals, in cohorts of 10, were administered either a single dose of 15 mg/kg esketamine, 7 daily doses of either 7.5 or 15 mg/kg esketamine or a vehicle control, and the test performed 30 minutes after dosing. Statistical evaluation was performed using an ordinary One-Way ANOVA, t Test and an Uncorrected Fisher's LSD comparisons test.

[7] = Repeated dose 28 day toxicokinetics; settings: males vs females
Method: The objective of the study was to assess the potential toxicity, neurobehavioral effects, and toxicokinetics (TK) of esketamine when administered orally, via gavage, to Sprague Dawley rats for 28 days and to evaluate recovery during a 14-day drug-free period. Fifty male and 50 female rats were randomized into 4 groups (15/sex/Groups 1 and 4; 10/sex/Groups 2 and 3). Esketamine was administered via oral gavage once daily for 28 consecutive days to males at 0 (vehicle control), 6, 10 or 30 mg/kg/day and females at 0 (vehicle control), 2, 10 or 20 mg/kg/day in a dose volume of 10 mL/kg. Animals were observed until euthanized and necropsied on Day 29 (10/sex/group) or 43 (5/sex from Groups 1 and 4). Toxicity was evaluated based on mortality, clinical observations, body weights, food consumption, ophthalmology, motor activity, functional observational battery, clinical pathology (clinical chemistry, hematology, coagulation and urinalysis), organ weights, anatomic (macroscopic or microscopic) pathology. Toxicokinetic animals (3/sex/Group 1; 6/sex/Groups 2, 3, and 4) were similarly dosed and bled on Day 1 and during Week 4 for toxicokinetic analysis.

[8] = Pharmacokinetics of 40 mg oral esketamine in MDD participants treated with an antidepressant; format: in vivo, human; settings: 40 mg oral esketamine hydrochloride once daily for 7 days, 15 MDD subjects
Method: An 18 subject in patient study to assess the safety, tolerability, and pharmacokinetics of 40 mg oral esketamine in MDD participants currently treated with an antidepressant drug was held. In an, up to, 35 day screening phase, the subjects were assessed for study eligibility and, if needed, washed out from disallowed drugs. During this period, it was also determined whether the subject's current dose of oral antidepressant medication had been stable for at least 4 weeks.

SMILES: N[C@]1(c2ccccc2Cl)CCCCC1=O [(S)-norketamine, (2S)-2-(2-Chlorophenyl)-2-(amino) cyclohexanone]
- clastogenicity (structural and numerical chromosomal aberrations) [1]: non-clastogenic

SMILES: N[C@]1(c2ccccc2Cl)CCC[C@H](O)C1=O [(2S,6S)-OH-Norketamine, (2S,6S)-2-Amino-2-(2-chlorophenyl)-6-hydroxycyclohexanone]
- t1/2, geometric mean [2]: 7.83 h

SMILES: CN[C@]1(c2ccccc2Cl)CCCCC1=O [esketamine, (2S)-2-(2-Chlorophenyl)-2-(methylamino) cyclohexanone]
- Cochran-Armitage test for dose response of structural aberrations [3]: positive for a dose response
- induction of numerical chromosomal aberrations [3]: negative
- induction of structural and numerical chromosomal aberrations [3]: negative
- toxicity (≥45% reduction in MI relative to the vehicle control), preliminary toxicity test [3]: not observed at any dose
- cytotoxicity (≥45% reduction in mitotic index relative to the vehicle control), definitive assay ([3]; non-activated 4- and 20-hour treatment, 30 to 238 μg/ml): not observed at any esketamine dose
- total number of TEAEs reported [4]: 128
- psychotomimetic side effects compared with (R)-ketamine [5]: greater undesirable psychotomimetic side effects
- antidepressant-like effect, continuous 7-day treatment vs single acute dose ([6]; same dose levels): stronger antidepressant-like effect than a single acute dose
- effect on immobility time, acute treated rats ([6]; single dose of 15 mg/kg intraperitoneal, test 30 minutes after dosing): 42 % of control
- exposure by sex after normalization for dose level differences [7]: males had lower exposures than females
- mean esketamine Cmax [8]: 11.82 ng/mL
- AUC(0-t) ([8]; human, in vivo, read-out: mean esketamine AUC0-t): 35.6 ng·h/mL
